Format in all cases: ADME, organism-based
Data set [1] is described as follows: Cmax in ICR mouse at 5 mg/kg, po measured over 24 hrs by LC-MS/MS analysis. Details: route oral, dose 5 mg/kg, time >24. As to conditions: in vivo.
Data set [2] can be described thus: Volume of distribution at steady state in ICR mouse at 1 mg/kg, iv measured over 24 hrs by LC-MS/MS analysis. The conditions noted are these: in vivo, read-out: Vdss.
Data set [3] can be described thus: Oral bioavailability in ICR mouse at 5 mg/kg measured over 24 hrs by LC-MS/MS analysis. As to conditions: in vivo.
Data set [4] can be described thus: AUC (0 to last) in ICR mouse at 5 mg/kg, po measured over 24 hrs by LC-MS/MS analysis. Also on record: route oral, dose 5 mg/kg, time >24. As to conditions: in vivo.
The nature of data set [5]: Clearance in ICR mouse at 1 mg/kg, iv measured over 24 hrs by LC-MS/MS analysis. As to conditions: in vivo.
Data set [6] is described as follows: Cmax in ICR mouse at 1 mg/kg, iv measured over 24 hrs by LC-MS/MS analysis. Details: route intravenous, dose 1 mg/kg, time >24. The conditions noted are these: in vivo.
Data set [7] in a line: AUC (0 to last) in ICR mouse at 1 mg/kg, iv measured over 24 hrs by LC-MS/MS analysis. Details: route intravenous, dose 1 mg/kg, time >24. As to conditions: in vivo.

Each structure is given as a SMILES string.

For orientation: Cmax means the peak of the concentration-time curve. Usually bioavailability stands for the share of a dose that reaches the circulation, judged against a reference dose that is usually intravenous. The low end stands for poor availability, the high end for good availability. One may read the AUC(0-t) as the area under the concentration-time curve up to a stated or last time point. Read a low AUC(0-t) as less exposure. In general, clearance refers to the rate of elimination divided by the concentration. Read a high clearance as efficient removal. In the case of `Cc1c(Nc2nc3c(s2)CCCC3O)cc(Cl)cc1OC1CCN(C(=O)CC(C(F)(F)F)C(F)(F)F)CC1` (racemic), the Cmax turned out to be 213 ng/mL in data set [1] and 590 ng/mL in data set [6]. In addition, in data set [2], the Vd stood at 2.95 L/kg. In data set [3], the bioavailability turned out to be 18.9%. In addition, the AUC(0-t) at 24 h in data set [4] was 599 ng·h/mL; in data set [7] it was 634 ng·h/mL. The molecule further showed a clearance in data set [5] of 26.6 mL/min/kg.

Values taken from ChEMBL document CHEMBL5042506, “Discovery of Orally Available Retinoic Acid Receptor-Related Orphan Receptor γ-t/Dihydroorotate Dehydrogenase Dual Inhibitors for the Treatment of Refractory Inflammatory Bowel Disease” (J Med Chem, 2022).
